Results reported in PMC5954141, “Structure-guided Discovery of Dual-recognition Chemibodies” (Scientific Reports, 2018).
Where two headings read alike, the source gives them in different places.

Biological target: T1, DPP-IV enzyme (Rattus norvegicus, UniProt P14740)
T1 construct: made in house
Assay: DPP-IV dipeptide (Ala-Pro-AFC) cleavage inhibition, fluorescent assay
Assay type: biochemical
Experimental: DPP-IV catalytic activity and inhibition of dipeptide cleavage was measured using a fluorescent assay performed at room temperature in 384-well, black polypropylene microplates. […] Assay data shown in Fig. 3 were performed with a one-hour incubation time. The data were fit to the four-parameter model using a Levenburg–Marquardt nonlinear regression algorithm. Figure 3b,c were generated using GraphPad Prism v6.
Rat DPP-IV enzyme and Fab mutant proteins were expressed and purified as previously described. […] For x-ray diffraction data collection, crystals were transferred into well solution with 30% (w/v) ethylene glycol and then flash frozen in liquid nitrogen.

[1] = dipeptide substrate cleavage, read-out: DPP-IV IC50
[2] = Table S6, Ala-Pro-AFC at 10 µM, one-hour incubation, triplicate, read-out: measured IC50's

T1 sequence (P14740 whole entry): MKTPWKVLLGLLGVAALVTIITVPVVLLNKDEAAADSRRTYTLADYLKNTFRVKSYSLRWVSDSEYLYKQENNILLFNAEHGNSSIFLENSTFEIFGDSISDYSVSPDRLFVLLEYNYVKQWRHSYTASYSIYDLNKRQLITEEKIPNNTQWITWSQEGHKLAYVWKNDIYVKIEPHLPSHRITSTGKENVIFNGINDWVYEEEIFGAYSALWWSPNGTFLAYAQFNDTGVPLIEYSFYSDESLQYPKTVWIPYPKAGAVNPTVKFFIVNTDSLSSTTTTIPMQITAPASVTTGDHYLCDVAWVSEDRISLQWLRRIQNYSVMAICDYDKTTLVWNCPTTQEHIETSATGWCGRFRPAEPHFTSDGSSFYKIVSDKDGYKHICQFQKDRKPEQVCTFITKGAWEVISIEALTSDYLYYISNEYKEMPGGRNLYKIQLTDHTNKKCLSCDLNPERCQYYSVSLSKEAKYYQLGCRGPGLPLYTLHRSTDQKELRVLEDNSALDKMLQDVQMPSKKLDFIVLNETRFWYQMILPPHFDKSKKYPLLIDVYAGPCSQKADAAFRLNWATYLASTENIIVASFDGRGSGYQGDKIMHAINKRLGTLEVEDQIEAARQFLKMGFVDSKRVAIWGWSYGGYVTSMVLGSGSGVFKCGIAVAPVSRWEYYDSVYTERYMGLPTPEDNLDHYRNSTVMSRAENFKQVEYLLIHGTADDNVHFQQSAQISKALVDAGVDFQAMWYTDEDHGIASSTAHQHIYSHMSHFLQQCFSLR

Row | SMILES | IC50 [1] | potency loss as compared with sitagliptin (same experimental conditions) | IC50 [2]
1 | CNC(=O)CN1CCN(C(=O)C[C@H](N)Cc2cc(F)c(F)cc2F)CC1.Cl [compound 2, (R)-2-(4-(3-amino-4-(2,4,5-trifluorophenyl)butanoyl)piperazin-1-yl)-N-methylacetamide hydrochloride] | 130 nM | seven-fold | 
2 | COCCOCCOCCOCCNC(=O)CN1CCN(C(=O)C[C@H](N)Cc2cc(F)c(F)cc2F)CC1 [compound 4 (n = 3)] | 105 nM |  | 
3 | COCCOCCOCCOCCOCCOCCOCCOCCNC(=O)CN1CCN(C(=O)C[C@H](N)Cc2cc(F)c(F)cc2F)CC1 [compound 4 (n = 7)] | 70 nM |  | 
4 | CC(=O)NCCOCCOCCOCCNC(=O)CN1CCN(C(=O)C[C@H](N)Cc2cc(F)c(F)cc2F)CC1 [compound 6 (n = 3)] |  |  | 141 nM
5 | CC(=O)NCCOCCOCCOCCOCCNC(=O)CN1CCN(C(=O)C[C@H](N)Cc2cc(F)c(F)cc2F)CC1 [compound 6 (n = 4)] |  |  | 100 nM
6 | CC(=O)NCCOCCOCCOCCOCCOCCNC(=O)CN1CCN(C(=O)C[C@H](N)Cc2cc(F)c(F)cc2F)CC1 [compound 6 (n = 5)] |  |  | 146 nM
7 | CC(=O)NCCOCCOCCOCCOCCOCCOCCNC(=O)CN1CCN(C(=O)C[C@H](N)Cc2cc(F)c(F)cc2F)CC1 [compound 6 (n = 6)] |  |  | 119 nM
8 | CC(=O)NCCOCCOCCOCCOCCOCCOCCOCCNC(=O)CN1CCN(C(=O)C[C@H](N)Cc2cc(F)c(F)cc2F)CC1 [compound 6 (n = 7)] |  |  | 134 nM
9 | CC(=O)NCCOCCOCCOCCOCCOCCOCCOCCOCCNC(=O)CN1CCN(C(=O)C[C@H](N)Cc2cc(F)c(F)cc2F)CC1 [compound 6 (n = 8)] |  |  | 124 nM
10 | CC(=O)NCCOCCOCCOCCOCCOCCOCCOCCOCCOCCOCCNC(=O)CN1CCN(C(=O)C[C@H](N)Cc2cc(F)c(F)cc2F)CC1 [compound 6 (n = 10)] |  |  | 152 nM
11 | CC(=O)NCCOCCOCCOCCOCCOCCOCCOCCOCCOCCOCCOCCNC(=O)CN1CCN(C(=O)C[C@H](N)Cc2cc(F)c(F)cc2F)CC1 [compound 6 (n = 11)] |  |  | 160 nM
